Measured values from ChEMBL document CHEMBL3352029, “Ring fusion strategy for the synthesis of anthra[2,3-d]oxazole-2-thione-5,10-dione homologues as DNA topoisomerase inhibitors and as antitumor agents” (Eur J Med Chem, 2014).
Active and inactive are the calls of the source. The calls are words filed in the database; no cut-off is given here.

Key:
U-251 = assay: Cytotoxicity against human U251 cells assessed as cell growth level at 10 uM after 48 hrs by sulforhodamine B assay; format: functional
SK-MEL-28 = assay: Cytotoxicity against human SK-MEL-28 cells assessed as cell growth level at 10 uM after 48 hrs by sulforhodamine B assay; format: functional
SF-295 = assay: Cytotoxicity against human SF295 cells assessed as cell growth level at 10 uM after 48 hrs by sulforhodamine B assay; format: functional
HCC 2998 = assay: Cytotoxicity against human HCC2998 cells assessed as cell growth level at 10 uM after 48 hrs by sulforhodamine B assay; format: functional
[1] = Cytotoxicity against human OVCAR3 cells assessed as cell growth level at 10 uM after 48 hrs by sulforhodamine B assay; format: functional, OVCAR-3
SF-539 = assay: Cytotoxicity against human SF539 cells assessed as cell growth level at 10 uM after 48 hrs by sulforhodamine B assay; format: functional
[2] = Cytotoxicity against human UACC257 cells assessed as cell growth level at 10 uM after 48 hrs by sulforhodamine B assay; format: functional, UACC-257
CCRF-CEM = assay: Cytotoxicity against human CCRF-CEM cells assessed as cell growth level at 10 uM after 48 hrs by sulforhodamine B assay; format: functional
SN12C = assay: Cytotoxicity against human SN12C cells assessed as cell growth level at 10 uM after 48 hrs by sulforhodamine B assay; format: functional
[3] = Cytotoxicity against human PC3 cells assessed as cell growth level at 10 uM after 48 hrs by sulforhodamine B assay; format: functional, PC-3
BT-549 = assay: Cytotoxicity against human BT549 cells assessed as cell growth level at 10 uM after 48 hrs by sulforhodamine B assay; format: functional
NCI-H23 = assay: Cytotoxicity against human NCI-H23 cells assessed as cell growth level at 10 uM after 48 hrs by sulforhodamine B assay; format: functional
CAKI-1 = assay: Cytotoxicity against human CAKI-1 cells assessed as cell growth level at 10 uM after 48 hrs by sulforhodamine B assay; format: functional
SK-MEL-5 = assay: Cytotoxicity against human SK-MEL-5 cells assessed as cell growth level at 10 uM after 48 hrs by sulforhodamine B assay; format: functional
HL-60(TB) = assay: Cytotoxicity against human HL-60(TB) cells assessed as cell growth level at 10 uM after 48 hrs by sulforhodamine B assay; format: functional
SK-MEL-2 = assay: Cytotoxicity against human SK-MEL-2 cells assessed as cell growth level at 10 uM after 48 hrs by sulforhodamine B assay; format: functional
786-0 = assay: Cytotoxicity against human 786-0 cells assessed as cell growth level at 10 uM after 48 hrs by sulforhodamine B assay; format: functional
DU-145 = assay: Cytotoxicity against human DU145 cells assessed as cell growth level at 10 uM after 48 hrs by sulforhodamine B assay; format: functional
KM12 = assay: Cytotoxicity against human KM12 cells assessed as cell growth level at 10 uM after 48 hrs by sulforhodamine B assay; format: functional
HOP-92 = assay: Cytotoxicity against human HOP92 cells assessed as cell growth level at 10 uM after 48 hrs by sulforhodamine B assay; format: functional
[4] = Cytotoxicity against human SKOV3 cells assessed as cell growth level at 10 uM after 48 hrs by sulforhodamine B assay; format: functional, SK-OV-3
MCF7 = assay: Cytotoxicity against human MCF7 cells assessed as cell growth level at 10 uM after 48 hrs by sulforhodamine B assay; format: functional
Malme-3M = assay: Cytotoxicity against human MALME-3M cells assessed as cell growth level at 10 uM after 48 hrs by sulforhodamine B assay; format: functional
HT-29 = assay: Cytotoxicity against human HT-29 cells assessed as cell growth level at 10 uM after 48 hrs by sulforhodamine B assay; format: functional
NCI-H226 = assay: Cytotoxicity against human NCI-H226 cells assessed as cell growth level at 10 uM after 48 hrs by sulforhodamine B assay; format: functional
[5] = Cytotoxicity against human OVCAR8 cells assessed as cell growth level at 10 uM after 48 hrs by sulforhodamine B assay; format: functional, OVCAR-8
A549 = assay: Cytotoxicity against human A549/ATCC cells assessed as cell growth level at 10 uM after 48 hrs by sulforhodamine B assay; format: functional
LOX IMVI = assay: Cytotoxicity against human LOXIMVI cells assessed as cell growth level at 10 uM after 48 hrs by sulforhodamine B assay; format: functional
T47D = assay: Cytotoxicity against human T47D cells assessed as cell growth level at 10 uM after 48 hrs by sulforhodamine B assay; format: functional
SF-268 = assay: Cytotoxicity against human SF268 cells assessed as cell growth level at 10 uM after 48 hrs by sulforhodamine B assay; format: functional
RXF 393 = assay: Cytotoxicity against human RXF393 cells assessed as cell growth level at 10 uM after 48 hrs by sulforhodamine B assay; format: functional
ACHN = assay: Cytotoxicity against human ACHN cells assessed as cell growth level at 10 uM after 48 hrs by sulforhodamine B assay; format: functional
MDA-MB-231 = assay: Cytotoxicity against human MDA-MB-231 cells assessed as cell growth level at 10 uM after 48 hrs by sulforhodamine B assay; format: functional
K562 = assay: Cytotoxicity against human K562 cells assessed as cell growth level at 10 uM after 48 hrs by sulforhodamine B assay; format: functional
NCI-H322M = assay: Cytotoxicity against human NCI-H322M cells assessed as cell growth level at 10 uM after 48 hrs by sulforhodamine B assay; format: functional
MDA-MB-435 = assay: Cytotoxicity against human MDA-MB-435 cells assessed as cell growth level at 10 uM after 48 hrs by sulforhodamine B assay; format: functional
IGROV-1 = assay: Cytotoxicity against human IGROV1 cells assessed as cell growth level at 10 uM after 48 hrs by sulforhodamine B assay; format: functional
[6] = Cytotoxicity against human HCT116 cells assessed as cell growth level at 10 uM after 48 hrs by sulforhodamine B assay; format: functional, HCT-116
[7] = Cytotoxicity against human UACC62 cells assessed as cell growth level at 10 uM after 48 hrs by sulforhodamine B assay; format: functional, UACC-62
HOP-62 = assay: Cytotoxicity against human HOP62 cells assessed as cell growth level at 10 uM after 48 hrs by sulforhodamine B assay; format: functional
RPMI-8226 = assay: Cytotoxicity against human RPMI8226 cells assessed as cell growth level at 10 uM after 48 hrs by sulforhodamine B assay; format: functional
SW-620 = assay: Cytotoxicity against human SW620 cells assessed as cell growth level at 10 uM after 48 hrs by sulforhodamine B assay; format: functional
SNB-19 = assay: Cytotoxicity against human SNB19 cells assessed as cell growth level at 10 uM after 48 hrs by sulforhodamine B assay; format: functional
NCI-H460 = assay: Cytotoxicity against human NCI-H460 cells assessed as cell growth level at 10 uM after 48 hrs by sulforhodamine B assay; format: functional
SNB-75 = assay: Cytotoxicity against human SNB75 cells assessed as cell growth level at 10 uM after 48 hrs by sulforhodamine B assay; format: functional
COLO 205 = assay: Cytotoxicity against human COLO205 cells assessed as cell growth level at 10 uM after 48 hrs by sulforhodamine B assay; format: functional
MOLT-4 = assay: Cytotoxicity against human MOLT4 cells assessed as cell growth level at 10 uM after 48 hrs by sulforhodamine B assay; format: functional
[8] = Cytotoxicity against human PC3 cells assessed as inhibition of cell growth after 48 hrs by sulforhodamine B assay; format: functional, cell-based; conditions: PC-3, 48 h
[9] = Cytotoxicity against human NCI-ADR-RES cells assessed as cell growth level at 10 uM after 48 hrs by sulforhodamine B assay; format: functional
[10] = Cytotoxicity against human HCT15 cells assessed as cell growth level at 10 uM after 48 hrs by sulforhodamine B assay; format: functional, HCT-15
A498 = assay: Cytotoxicity against human A498 cells assessed as cell growth level at 10 uM after 48 hrs by sulforhodamine B assay; format: functional
M14 = assay: Cytotoxicity against human M14 cells assessed as cell growth level at 10 uM after 48 hrs by sulforhodamine B assay; format: functional
[11] = Cytotoxicity against human UO31 cells assessed as cell growth level at 10 uM after 48 hrs by sulforhodamine B assay; format: functional, UO-31
[12] = Cytotoxicity against human Hs 578T cells assessed as cell growth level at 10 uM after 48 hrs by sulforhodamine B assay; format: functional
MDA-MB-468 = assay: Cytotoxicity against human MDA-MB-468 cells assessed as cell growth level at 10 uM after 48 hrs by sulforhodamine B assay; format: functional
[13] = Cytotoxicity against human OVCAR5 cells assessed as cell growth level at 10 uM after 48 hrs by sulforhodamine B assay; format: functional, OVCAR-5
NCI-H522 = assay: Cytotoxicity against human NCI-H522 cells assessed as cell growth level at 10 uM after 48 hrs by sulforhodamine B assay; format: functional
[14] = target: T1, DNA topoisomerase 1 (Homo sapiens) (UniProt P11387); assay: Inhibition of human recombinant DNA topoisomerase 1 assessed as reduction in relaxation of supercoiled pHOT DNA at 25 to 50 uM incubated for 45 mins by ethidium bromide staining based gel electrophoresis
T1 sequence (whole entry): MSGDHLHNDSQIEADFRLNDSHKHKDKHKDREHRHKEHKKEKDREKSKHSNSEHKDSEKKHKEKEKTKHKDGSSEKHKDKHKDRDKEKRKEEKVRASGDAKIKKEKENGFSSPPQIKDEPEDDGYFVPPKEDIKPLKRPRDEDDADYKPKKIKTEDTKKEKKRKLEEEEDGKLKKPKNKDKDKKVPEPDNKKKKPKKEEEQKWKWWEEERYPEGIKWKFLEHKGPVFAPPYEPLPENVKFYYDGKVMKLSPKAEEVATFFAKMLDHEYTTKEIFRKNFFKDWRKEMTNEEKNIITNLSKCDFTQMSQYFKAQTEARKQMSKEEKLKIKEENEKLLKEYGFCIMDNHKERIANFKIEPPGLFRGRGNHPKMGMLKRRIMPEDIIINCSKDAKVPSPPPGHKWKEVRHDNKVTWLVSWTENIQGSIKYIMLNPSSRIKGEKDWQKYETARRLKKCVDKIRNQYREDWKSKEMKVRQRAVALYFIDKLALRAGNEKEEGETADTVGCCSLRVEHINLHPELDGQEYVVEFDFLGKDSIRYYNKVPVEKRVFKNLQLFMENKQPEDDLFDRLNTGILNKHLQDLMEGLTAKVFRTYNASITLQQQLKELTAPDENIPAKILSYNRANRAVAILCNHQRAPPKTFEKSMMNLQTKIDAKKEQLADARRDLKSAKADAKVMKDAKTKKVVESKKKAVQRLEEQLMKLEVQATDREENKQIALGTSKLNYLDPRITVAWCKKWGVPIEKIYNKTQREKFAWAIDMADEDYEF

SMILES: O=C(CCN1CCCC1)Nc1cc2c(cc1O)C(=O)c1ccccc1C2=O
- Activity (U-251): 95.72%
- Activity (SK-MEL-28): 104.99%
- Activity (SF-295): 93.19%
- Activity (HCC 2998): 98.08%
- Activity [1]: 108.53%
- Activity (SF-539): 98.8%
- Activity [2]: 113%
- Activity (CCRF-CEM): 87.09%
- Activity (SN12C): 100.6%
- Activity [3]: 91.56%
- Activity (BT-549): 96.56%
- Activity (NCI-H23): 91.17%
- Activity (CAKI-1): 82.42%
- Activity (SK-MEL-5): 102.47%
- Activity (HL-60(TB)): 103.96%
- Activity (SK-MEL-2): 102.06%
- Activity (786-0): 99.72%
- Activity (DU-145): 105.86%
- Activity (KM12): 106.65%
- Activity (HOP-92): 83.51%
- Activity [4]: 104.33%
- Activity (MCF7): 56.43%
- Activity (Malme-3M): 142.32%
- Activity (HT-29): 67.12%
- Activity (NCI-H226): 89.38%
- Activity [5]: 100.18%
- Activity (A549): 98.4%
- Activity (LOX IMVI): 107.45%
- Activity (T47D): 74.5%
- Activity (SF-268): 97.79%
- Activity (RXF 393): 103.62%
- Activity (ACHN): 82.72%
- Activity (MDA-MB-231): 92.22%
- Activity (K562): 106.34%
- Activity (NCI-H322M): 108.8%
- Activity (MDA-MB-435): 103.97%
- Activity (IGROV-1): 112.79%
- Activity [6]: 98.96%
- Activity [7]: 94.37%
- Activity (HOP-62): 98.3%
- Activity (RPMI-8226): 86.61%
- Activity (SW-620): 106.36%
- Activity (SNB-19): 96.45%
- Activity (NCI-H460): 101.03%
- Activity (SNB-75): 89.48%
- Activity (COLO 205): 118.26%
- Activity (MOLT-4): 114.86%
- IC50 [8]: > 30 µM
- Activity [9]: 103.64%
- Activity [10]: 97.11%
- Activity (A498): 86.98%
- Activity (M14): 96.96%
- Activity [11]: 79.74%
- Activity [12]: 97.73%
- Activity (MDA-MB-468): 93.65%
- Activity [13]: 100.56%
- Activity (NCI-H522): 89.35%

SMILES: O=C1c2ccccc2C(=O)c2cc3oc(SCCCN4CCCCC4)nc3cc21
- inhibition [14]: Active
- IC50 [8]: 12.2 µM

SMILES: O=C1c2ccccc2C(=O)c2cc3oc(=S)[nH]c3cc21
- inhibition [14]: inactive
- IC50 [8]: > 30 µM
